In patent US9458104B2 (priority 2012, dated 2016):

Legend:
[1] = target: T1, RORγ ligand binding domain (LBD) (Homo sapiens, UniProt P51449); assay: TR-FRET Activity Assay (ligand sensing assay, RORγ-LBD / coactivator peptide interaction); assay type: biochemical
T1 construct: made in house; host or cells: E. coli BL-21 (BL3), vector pDEST15
T1 sequence (P51449 269-508 limits assumed): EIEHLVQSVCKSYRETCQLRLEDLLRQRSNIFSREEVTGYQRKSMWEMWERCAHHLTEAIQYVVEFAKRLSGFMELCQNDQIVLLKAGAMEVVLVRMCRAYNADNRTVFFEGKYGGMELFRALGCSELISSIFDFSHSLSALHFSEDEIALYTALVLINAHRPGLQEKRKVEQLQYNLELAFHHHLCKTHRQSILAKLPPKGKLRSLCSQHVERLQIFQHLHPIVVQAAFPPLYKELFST
From the text: This method measures the ability of putative ligands to modulate the interaction between the purified bacterial expressed RORγ ligand binding domain (LBD) and synthetic N-terminally biotinylated peptides which are derived from nuclear receptor coactivator proteins such as but not limited to SRC1 (NcoA1), SRC2 (NcoA2, TIF2), SRC3 (NcoA3), PGC1α, PGC1β, CBP, GRIP1, TRAP220, RIP140.
The ligand-binding domain (LBD) of RORγ was expressed as fusion protein with GST in […] cells using the vector pDEST15. Cells were lysed by lysozyme-treatment and sonication, and the fusion proteins purified over glutathione sepharose (Pharmacia) according to the manufacturers instructions. For screening of compounds for their influence on the RORγ-peptide interaction, the LANCE technology (Perkin Elmer) was applied. This method relies on the binding dependent energy transfer from a donor to an acceptor fluorophor attached to the binding partner of interest. For ease of handling and reduction of background from compound fluorescence LANCE technology makes use of generic fluorophore labels and time resolved detection assays were done in a final volume of 25 μL in a 384 well plate, in a Tris-based buffer system (20 mM Tris-HCl pH6.8; 60 mM KCl, 1 mM DTT; 5 mM MgCl2; 35 ng/μL BSA), containing 20-60 ng/well recombinantly expressed RORγ-LBD fused to GST, 200-600 nM N-terminally biotinylated peptide, 200 ng/well Streptavidin-xIAPC conjugate (Prozyme) and 6-10 ng/well Eu W1024-antiGST (Perkin Elmer). DMSO content of the samples was kept at 1%.
After generation of the Tris-based buffer system, the potentially RORγ modulating ligands were diluted. […] The LANCE signal was detected by a Perkin Elmer EnVision™ Multilabel Counter. The results were visualized by plotting the ratio between the emitted light at 665 nm and 615 nm. […] Ligands that promote the complex formation induce a concentration-dependent increase in time-resolved fluorescent signal.
To assess the antagonistic potential of the compounds, IC50 values were determined using a Ligand Sensing Assay based on Time-resolved Fluorescence Energy Transfer (TR-FRET) as described above. The normalised TR-FRET assay values, using the following equation: 1000*665 nm measurement value/615 nm measurement value, were transferred to the program GraphPad Prism to generate graphs and dose response curves using the following equation: […]
This is identical to the “four parameter logistic equation”. The IC50 values are calculated using this equation. […] Is is understood that the data illustrated below may have reasonable variation depending on the specific conditions and procedures used by the person conducting the test.

RORγ = target: T2, RORγ (UniProt P51449); assay type: cell-based; details: 293T cells, 16 h; for pIC50 (FF): firefly (FF) luciferase; for pIC50 (REN): renilla normalised (RENnorm) luciferase
T2 construct: hRORg-LBD|aa259-518|NP_005051.2; hRORgt|aa1-497|NP_001001523 (RORg, t isoform, 497aa); mRORg-LBD|aa264-516|NP_035411
T2 sequence (P51449 1-518): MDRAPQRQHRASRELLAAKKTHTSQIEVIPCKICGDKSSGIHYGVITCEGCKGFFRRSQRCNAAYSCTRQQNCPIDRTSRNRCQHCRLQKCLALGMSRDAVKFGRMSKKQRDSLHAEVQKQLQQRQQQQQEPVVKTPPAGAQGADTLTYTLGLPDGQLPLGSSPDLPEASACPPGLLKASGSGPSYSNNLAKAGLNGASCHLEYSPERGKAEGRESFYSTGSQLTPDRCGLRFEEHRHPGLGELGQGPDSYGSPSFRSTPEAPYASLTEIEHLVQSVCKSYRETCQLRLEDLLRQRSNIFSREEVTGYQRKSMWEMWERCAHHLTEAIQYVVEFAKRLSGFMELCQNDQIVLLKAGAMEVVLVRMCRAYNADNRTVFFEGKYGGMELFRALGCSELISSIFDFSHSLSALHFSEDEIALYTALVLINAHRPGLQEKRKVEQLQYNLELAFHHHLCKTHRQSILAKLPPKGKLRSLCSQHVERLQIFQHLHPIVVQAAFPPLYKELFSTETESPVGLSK
Method: Determination of a ligand mediated Gal4 promoter driven transactivation to quantify ligand binding to RORγ was performed as follows: DNA encoding three different RORγ. protein fragments was cloned into vector pCMV-BD (Stratagene). Expression was under control of a CMV promoter and as fusion to the DNA-binding domain of the yeast protein GAL4. Other vectors used were pFR-Luc (Stratagene) as regulated reporter plasmid. pFR-Luc contains a synthetic promoter with five tandem repeats of the yeast GAL4 binding sites that control expression of the Photinus pyralis (American firefly) luciferase gene. In order to improve experimental accuracy the plasmid pRL-CMV was cotransfected. pRL-CMV contains the constitutive CMV promoter, controlling the expression of the Renilla reniformis luciferase.
All Gal4 reporter gene assays were done in 293T cells (DSMZ (German Collection of Microorganisms and Cell Cultures), Braunschweig, Germany, ACC635) grown in Minimum Essential Medium (MEM) with Phenol Red. The medium is supplemented with 10% fetal bovine serum, 0.1 mM nonessential amino acids, 1 mM sodium pyruvate, 1% Glutamax and 100 units Penicilin/[…] per mL at 37° C. in 5% CO2.
For the assay, […] were plated per well in 96 well plates in 100 μL per well, incubated over night at 37° C. in 5% CO2. The following day, medium was discarded and the cells were transiently transfected using 20 μL per well of a OptiMEM—PEI-based transfection-reagent (Sigma-Aldrich, 408727) including the three plasmids described above. About 4 h after addition of the transfection solution, fresh Minimal Essential Medium (MEM, same composition as used for plating cells, but without serum) was added. Then compound stocks, prediluted in MEM (same composition as used for plating cells) were added (final vehicle concentration not exceeding 0.1%).
All experiments were done at least in triplicates.
It is understood that the data illustrated below may have reasonable variation depending on the specific conditions and procedures used by the person conducting the test.

| SMILES | IC50 [1] [nM] | pIC50 (FF) (RORγ) | pIC50 (REN) (RORγ) |
| --- | --- | --- | --- |
| COC(C)(C)c1cc(-n2nc(C(=O)NC3COC3)c(Cl)c2CC2CCCCC2)cc(C(C)(C)C)c1 [104/4] | 631 | 6.6 | 6.6 |
| Cc1c(C(=O)N[C@H]2C[C@H](C(=O)O)C2)cn(-c2cc(C(C)(C)C)cc(C3(C)CC3)c2)c1C(=O)N1CCCCC1 [Example 13/1] | 1000 | 6.7 | 6.8 |
| CC(C)(C)NS(=O)(=O)c1ccc(-c2nc(C(=O)N[C@H]3C[C@H](C(=O)O)C3)nn2CC2CCCCC2)cc1C(C)(C)C [308/10] | 6310 | < 4.7 | < 4.7 |
| CC(C)(C)c1cc(-c2[nH]c(C(=O)N[C@H]3C[C@H](C(=O)O)C3)cc2CC2CCCCC2)cc(C2(C)CC2)c1 [Example 12/2] | 1260 | 6.6 | 6.6 |
| Cc1c(C(=O)CC2CC2)cc(-c2cc(C(C)(C)C)cc(C(C)(C)C)c2)n1CC1CCCCC1 [Example 324, 1-(1-(Cyclohexylmethyl)-5-(3,5-di-tert-butylphenyl)-2-methyl-1H-pyrrol-3-yl)-2-cyclopropylethanone] | 631 | < 4.7 | < 4.7 |
| Cc1c(C(=O)NC2CCOCC2)cn(-c2ccc(S(=O)(=O)NC(C)(C)C)c(C(F)(F)F)c2)c1CC1CCCCC1 [4/3] | 398 | 7.6 | 7.6 |
| CC(C)(C)c1cc(-c2[nH]c(C(=O)N[C@H]3C[C@H](C(=O)O)C3)c(Cl)c2CC2CCCCC2)cc(C2(C)CC2)c1 [Example 18, trans-3-(5-(3-(tert-Butyl)-5-(1-methylcyclopropyl)phenyl)-3-chloro-4-(cyclohexylmethyl)-1H-pyrrole-2-carboxamido)cyclobutanecarboxylic acid] | 1260 | 6.6 | 6.5 |
| CC(C)NC(=O)c1cc(CC2CCCCC2)n(-c2cc(C(C)(C)C)cc(C(C)(C)C)c2)n1 [102/2] | 631 | < 4.7 | < 4.7 |
| Cn1c(C(=O)N[C@H]2C[C@H](C(=O)O)C2)cc(CC2CCCCC2)c1-c1cc(C(C)(C)C)cc(C2(C)CC2)c1 [Example 19/1] | 794 | 7.2 | 7.2 |
| Cn1c(C(=O)NC23CCC(C(=O)O)(CC2)CC3)cc(-c2ccc(S(=O)(=O)NC(C)(C)C)c3ccccc23)c1CC1CCCCC1 [8/8] | 2000 | 8.4 | 8.4 |
| CC(C)(C)c1cc(-n2nc(C(=O)NS(C)(=O)=O)cc2CC2CCCCC2)cc(C(C)(C)C)c1 [Example 312/1] | 6310 | < 4.7 | < 4.7 |
| Cc1c(C(=O)NC2CCOCC2)cc(-c2ccc(S(=O)(=O)NC(C)(C)C)c(C(F)(F)F)c2)n1CC(C)(C)C [302/2] | 5010 | 6.1 | 6.1 |
| Cn1c(C(N)=O)cc(-c2cc(C(C)(C)C)cc(C(C)(C)C)c2)c1CC1CCCCC1 [Example 304, 5-(Cyclohexylmethyl)-4-(3,5-di-tert-butylphenyl)-1-methyl-1H-pyrrole-2-carboxamide] | 126 | 6.1 | 6.1 |
| CC(C)(C)c1cc(-c2nc(C(=O)NC3COC3)nn2CC2CCCCC2)cc(C(C)(C)C)c1O [308/3] | 794 | 6.3 | 6.4 |
| Cc1c(C(=O)N[C@H]2C[C@H](C(=O)O)C2)cn(-c2cc(C(C)(C)C)cc(C3(C)CC3)c2)c1C(=O)C1CCCCC1 [Example 6, (trans)-3-(1-(3-(tert-Butyl)-5-(1-methylcyclopropyl)phenyl)-5-(cyclohexanecarbonyl)-4-methyl-1H-pyrrole-3-carboxamido)cyclobutanecarboxylic acid] | 501 | 7.9 | 8.0 |
| CC(C)(O)c1cc(-c2cc(C(=O)N[C@H]3C[C@H](C(=O)O)C3)[nH]c2CC2CCCCC2)cc(C2(C)CC2)c1 [Example 17, trans-3-(5-(Cyclohexylmethyl)-4-(3-(2-hydroxypropan-2-yl)-5-(1-methylcyclopropyl)phenyl)-1H-pyrrole-2-carboxamido)cyclobutanecarboxylic acid] | 1260 | 6.4 | 6.3 |
| CC(C)(C)NS(=O)(=O)c1ccc(-c2cc(C(=O)NC3CCOCC3)nn2CC2CCCCC2)cc1C(F)(F)F [100/5] | 501 | 7.1 | 7.2 |
| CC(C)(C)NS(=O)(=O)c1ccc(-c2cc(C(=O)NC3CCS(=O)(=O)CC3)nn2CC2CCCCC2)c(Cl)c1Cl [Example 112/1] | 501 | 7.5 | 7.6 |
| CC(C)(C)c1cc(-n2nc(C(=O)NCc3cnco3)c(Cl)c2CC2CCCCC2)cc(C(C)(C)C)c1 [103/7] | 251 | 6.3 | 6.3 |
